Publication PMC9068901, “Novel Inhibitors and Activity-Based Probes Targeting Trypsin-Like Serine Proteases” (Frontiers in Chemistry, 2022)
Read-outs that look alike come from different tables or passages of the source. *1 amine or outer side, *2 acyl side, *3 side chain or, on linkers, in order; H or OH if unused. Where a SMILES comes first, the peptide text is derived from it. Side-chain parts run from the residue outwards. [ ]: non-standard residue; d: D form. The star is where a group is joined. Biotin = O=C1N[C@H]2[C@H](CS[C@H]2CCCCC(=O)*)N1; Gly(N-(CH2)3-guanidino) = N=C(N)NCCCNCC(=O)O; Glutaryl = O=C(CCCC(=O)[*:2])[*:1]; X4 = O=C(Oc1c(F)c(F)c(F)c(F)c1F)*; X2 = O=C1CCC(=O)N1OC(=O)*; X3 = C#Cc1cccc(N*)c1; Ahx = NCCCCCC(=O)O; X1 = O=C(n1cncn1)*

Assays:
human trypsin [1] = target: T1, human trypsin (Homo sapiens, UniProt P07477); assay: Determination of inhibitor constants against trypsin (progress curves, Cbz-Gly-Gly-Arg-AMC); assay type: biochemical; settings: for k3: first-order rate constant; for k3/Ki: second-order rate constant
Description: (§1) Recombinant protease activities were assessed using the cognate fluorogenic substrates (final concentration 50 μM) as follows: trypsin (Cbz-Gly-Gly-Arg-AMC), neutrophil elastase (MeO-Suc-Ala-Ala-Pro-Val-AMC) and chymotrypsin (Suc-Ala-Ala-Pro-Phe-AMC). The assay in the presence or absence of protease inhibitors at a range of final concentrations was performed using a standard microtitre plate format. Substrate hydrolysis, at 37°C, was monitored over a 60 min period by measuring the rate of increase in fluorescence (at λex 360 nm, λem 480 nm) using a FLUOstar Optima microplate reader (BMG Labtech).
A broad range of inhibitor concentrations were prepared from a 10 mM stock solution of the five test compounds (NAP851, NAP966, NAP987, NAP884 and NAP858) in N,N-dimethyformamide (DMF). The fluorogenic substrate, Cbz-Gly-Gly-Arg-AMC, was diluted in assay buffer (PBS, pH 7.4) and used at a fixed concentration of 50 μM. All inhibition assays were performed in microtitre plates maintained at 37°C in a final volume of 100 μL. The reaction was initiated by the addition of human trypsin (0.01 μg/well) and the rate of substrate hydrolysis continuously recorded at λex 360 nm, λem 480 nm using a FLUOstar Optima microplate reader (BMG Labtech). The resultant inhibition progress curve for the putative protease inhibitors were analysed according to the kinetic models developed by Tian and Tsou ([Tian and Tsou, 1982]) and Walker and Elmore ([Walker and Elmore, 1984]), for irreversible inhibitors, using GRAFIT (Erithacus Software) as described previously ([Ferguson et al., 2016]).

trypsin [2] = assay: Off-target fluorogenic substrate assay, trypsin; assay type: biochemical; settings: across the range of concentrations studied, vs chymotrypsin and NE
Description: as §1

chymotrypsin = assay: Off-target fluorogenic substrate assay, chymotrypsin; assay type: biochemical; settings: for inhibition of chymotrypsin relative to controls: 50 μM (highest concentration tested)
Description: as §1

neutrophil elastase [3] = target: T2, neutrophil elastase (Homo sapiens, UniProt P08246); assay: Off-target fluorogenic substrate assay, neutrophil elastase; assay type: biochemical; settings: 50 μM (highest concentration tested); read-out: inhibition of NE (decrease in activity) relative to controls
T2 construct: purchased Calbiochem
T2 sequence (P08246 30-267): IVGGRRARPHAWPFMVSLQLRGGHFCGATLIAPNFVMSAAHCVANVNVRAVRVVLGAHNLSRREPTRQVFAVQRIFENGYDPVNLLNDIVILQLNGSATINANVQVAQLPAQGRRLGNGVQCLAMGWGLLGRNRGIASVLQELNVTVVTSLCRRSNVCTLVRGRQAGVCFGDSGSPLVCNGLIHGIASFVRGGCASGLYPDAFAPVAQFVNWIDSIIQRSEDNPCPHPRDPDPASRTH
Description: as §1

trypsin [4] = assay: Activity-based probe labelling of trypsin (SDS-PAGE, Western blot, streptavidin-HRP); assay type: binding; settings: probe 50 μM, 30 min, 37°C
Description: (§2) Samples of recombinant protease (trypsin, human airway trypsin-like protease (HAT), matriptase, thrombin or neutrophil elastase, as indicated in the relevant figure legends) were treated with putative ABPs at a concentration of 50 μM, for 30 min, at 37°C. A control sample was prepared by treating recombinant protease with solvent control only. A further sample was prepared where Cbz-Arg^P(OPh)2 was added 30 min prior to the addition of the ABP under examination. […] All treated samples were then denatured with SDS-containing reducing treatment buffer (10 min at 95°C), followed by resolution by SDS-PAGE and subjected to Western blotting. Note, only stable covalent bonds between the ABP and protease active site would survive the harsh denaturing conditions involved in the resolution process. Resolved proteins were then transferred on to nitrocellulose membrane and labelled with streptavidin-HRP. The ABP-protease complex was then visualised following treatment with Luminata Forte HRP substrate.

matriptase [5] = target: T3, matriptase (Homo sapiens, UniProt Q9Y5Y6); assay: Activity-based probe labelling of matriptase; assay type: binding; settings: 30 min, 37°C; band at 26 kDa
T3 construct: purchased R and D Systems
T3 sequence (Q9Y5Y6 615-855 limits assumed): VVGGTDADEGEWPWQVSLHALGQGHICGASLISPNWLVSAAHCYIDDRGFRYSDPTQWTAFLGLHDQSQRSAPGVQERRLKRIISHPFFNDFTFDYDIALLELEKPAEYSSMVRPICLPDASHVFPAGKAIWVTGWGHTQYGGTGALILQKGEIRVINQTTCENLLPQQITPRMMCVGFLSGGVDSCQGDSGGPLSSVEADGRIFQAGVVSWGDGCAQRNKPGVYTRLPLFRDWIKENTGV
Description: as §2

[6] = target: T4, human airway trypsin-like protease (HAT) (Homo sapiens, UniProt O60235); assay: Activity-based probe labelling of HAT; assay type: binding; settings: 30 min, 37°C; band at 25 kDa
T4 construct: purchased R and D Systems
T4 sequence (O60235 187-418 limits assumed): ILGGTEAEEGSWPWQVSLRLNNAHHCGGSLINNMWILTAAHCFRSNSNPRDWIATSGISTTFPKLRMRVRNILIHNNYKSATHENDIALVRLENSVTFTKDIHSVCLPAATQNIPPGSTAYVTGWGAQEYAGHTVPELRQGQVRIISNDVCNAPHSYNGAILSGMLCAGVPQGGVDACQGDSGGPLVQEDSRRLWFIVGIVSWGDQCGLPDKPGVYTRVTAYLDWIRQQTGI
T4 sequence (O60235 44-186 partner limits assumed): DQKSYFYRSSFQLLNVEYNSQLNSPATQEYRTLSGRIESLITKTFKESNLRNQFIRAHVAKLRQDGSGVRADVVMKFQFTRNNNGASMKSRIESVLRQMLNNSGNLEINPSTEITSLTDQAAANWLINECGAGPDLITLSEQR
Description: as §2

thrombin = target: T5, thrombin (Homo sapiens, UniProt P00734); assay: Activity-based probe labelling of thrombin; assay type: binding; settings: 30 min, 37°C; heavy chain 31 kDa
T5 construct: purchased R and D Systems
Description: as §2

[7] = tested on: trypsin-like proteases in American cockroach extract; assay: ABP of American cockroach extract; assay type: binding, Periplaneta americana; settings: probe 50 μM, 30 min, 37°C
Description: (§3) Cockroach extract was probed with NAP858 (50 μM) (± heat inactivation at 95°C, for 10 min), for 30 min, at 37°C. Samples were then denatured with SDS-containing reducing treatment buffer (10 min/95°C), followed by resolution by SDS-PAGE and protein transfer unto nitrocellulose membrane which was incubated with streptavidin-HRP (1 in 20,000). The membrane was visualised following treatment with Luminata Forte HRP substrate.
(§4) Removal of endogenous biotinylated proteins present in the cockroach extract was performed in some experiments to improve clarity of the Western blots obtained. Neutravidin agarose beads were washed three times with 1 ml wash buffer (150 mM NaCl, 50 mM Tris, 1 mM EGTA, 1% (v/v) NP-40, pH 7.4) then resuspended in PBS (pH 7.4). These neutravidin beads were then used to bind and remove (pre-clear) endogenous biotinylated proteins present in the cockroach extract. This involved rotation of the bead-cockroach extract mix at 4°C for 30 min followed by centrifugation to enable collection of the pre-cleared supernatant fraction. The bead fraction containing bound endogenous biotinylated proteins from cockroach extract was discarded. The supernatant was then probed with NAP858 (50 μM) (±Cbz-Arg^P(OPh)2), for 30 min, at 37°C, followed by addition of freshly washed neutravidin agarose beads. […]

[8] = tested on: trypsin-like proteases in German cockroach extract; assay: ABP of German cockroach extract; assay type: binding, Blattella germanica; settings: probe 50 μM, 30 min, 37°C
Description: as §3, §4

trypsin [9] = assay: Click chemistry labelling of trypsin with rhodamine-azide; assay type: binding; settings: trypsin 1 μg
Description: (§5) Samples pre-treated with competitive inhibitor (Cbz-Arg^P(OPh)2 for trypsin and Cbz-Val^P(OPh)2 for neutrophil elastase) for 30 min prior to addition of NAP884, were included for comparison. Following treatment with NAP884, DMSO (25% v/v final concentration), rhodamine-X azide (60 µM final concentration), copper (II)-TBTA complex (1 mM final concentration) and freshly prepared sodium ascorbate (1 mM final concentration) were added. The samples were mixed and incubated at room temperature in the dark for 1 h with gentle agitation. Samples were then denatured with SDS-containing reducing treatment buffer (10 min at 95°C), followed by resolution by SDS-PAGE and visualisation under UV light.

neutrophil elastase [10] = target: T2, neutrophil elastase; assay: Click chemistry labelling of neutrophil elastase with rhodamine-azide; assay type: binding; settings: NE 1 μg, 30 min, 37°C
Description: as §5, with “Samples of recombinant protease (trypsin and neutrophil elastase) were treated with alkyne-containing probe NAP884 at a concentration of 50 μM, for 30 min at 37°C. Samples pre-treated” for “Samples pre-treated”

human trypsin [11] = target: T1, human trypsin; design: method as in PMID 10611275; settings: ref [30]; cited from earlier work
matriptase [12] = target: T3, matriptase; design: method as in Reihill et al., 2016; settings: in words; ref Reihill et al., 2016; cited from earlier work
HAT = tested on: HAT; design: method as in Reihill et al., 2016; settings: in words; ref Reihill et al., 2016; cited from earlier work
[13] = PBS pH 7.4, 37°C, 50 μM Cbz-Gly-Gly-Arg-AMC, ±S.E.M., three determinations, read-out: Ki
[14] = PBS pH 7.4, 37°C, ±S.E.M., three determinations

Row | Structure (SMILES) | Ki (human trypsin [1]; [13]) [µM] | k3 (human trypsin [1]; [14]) | k3/Ki (human trypsin [1]; [14]) | selectivity of action for trypsin (trypsin [2]) | inhibition of chymotrypsin relative to controls (chymotrypsin) [%] | inhibition at 50 µM (neutrophil elastase [3]) [%] | labelling of trypsin (trypsin [4]) | further results
1 | N=C(N)NCCCN(CC(=O)NCC(=O)NCC(=O)NCCCCCC(=O)N[C@@H](CCCCNC(=O)CCCC[C@@H]1SC[C@@H]2NC(=O)N[C@@H]21)C(=O)O)C(=O)ON1C(=O)CCC1=O [NAP897] (X2-[Gly(N-(CH2)3-guanidino)]GG[Ahx]K(Biotin)-OH) | 0.663 | 0.741 (±0.225) min^−1 | 1.35 (±0.376) x 10^6 M^−1 min^−1 | pronounced selectivity of action in inhibiting trypsin | < 10 | < 10 | labelling of a single protein band corresponding to the correct molecular mass of trypsin | 
2 | N=C(N)NCCCN(CC(=O)NCC(=O)NCC(=O)NCCCOCCOCCOCCCNC(=O)CCCC[C@@H]1SC[C@@H]2NC(=O)N[C@@H]21)C(=O)ON1C(=O)CCC1=O [NAP858] | 0.226 | 0.473 (±0.101) min^−1 | 2.06 (±0.884) x 10^6 M^−1 min^−1 | pronounced selectivity of action in inhibiting trypsin | < 10 | < 10 | labelling of a single protein band corresponding to the correct molecular mass of trypsin | labelling of matriptase (matriptase [5]): does indeed function as an AP for both proteases; labelling of HAT [6]: does indeed function as an AP for both proteases; labelling of thrombin (thrombin): can act as an AP for thrombin; bands detected in American cockroach extract [7]: single, intense band with an apparent molecular mass of 25 kDa; bands detected in B. germanica extract [8]: close doublet of protein bands of similar molecular mass (≈25 kDa)
3 | C#Cc1cccc(NC(=O)CCCC(=O)NCCCC[C@H](NC(=O)CCCCCNC(=O)CNC(=O)CNC(=O)CN(CCCNC(=N)N)C(=O)ON2C(=O)CCC2=O)C(=O)O)c1 [NAP884] (X2-[Gly(N-(CH2)3-guanidino)]GG[Ahx]K([Glutaryl-X3])-OH) | 0.42 | 0.528 (±0.064) min^−1 | 1.34 (±0.351) x 10^6 M^−1 min^−1 | pronounced selectivity of action in inhibiting trypsin |  | ~50 |  | inhibitory behaviour against chymotrypsin (chymotrypsin; in words): similarly discriminating inhibitory behaviour against trypsin compared to chymotrypsin; detection of trypsin (trypsin [9]; probe 1 μM): not detectable; detection of trypsin (trypsin [9]; probe 10 μM): enabled the detection of trypsin; detection of trypsin (trypsin [9]; probe 50 μM): enabled the detection of trypsin; labelling of NE (neutrophil elastase [10]): complete absence of labelling of NE
4 | N=C(N)NCCCN(CC(=O)NCC(=O)NCC(=O)NCCCCCC(=O)N[C@@H](CCCCNC(=O)CCCC[C@@H]1SC[C@@H]2NC(=O)N[C@@H]21)C(=O)O)C(=O)n1cncn1 [NAP851] (X1-[Gly(N-(CH2)3-guanidino)]GG[Ahx]K(Biotin)-OH; N-terminus assumed) | 7.56 | 0.160 (±0.020) min^−1 | 2.46 (±0.858) x 10^4 M^−1 min^−1 |  |  |  |  | substrate turnover at prolonged incubation (human trypsin [1]; progress curves, 60 min incubation): slight increase in fluorescence, due to residual substrate turnover; Ki (human trypsin [1]; read-out: Ki): ~7.6 µM; k3/Ki fold smaller than NAP858 (human trypsin [1]; trypsin): ~8 fold; k3/Ki fold smaller than NAP897/NAP884 (human trypsin [1]; trypsin): ~4 fold; k3/Ki fold smaller than NAP966 (human trypsin [1]; trypsin): ~6 fold
5 | N=C(N)NCCC[C@H](NC(=O)CCC(=O)NCCCOCCOCCOCCCNC(=O)CCCC[C@@H]1SC[C@@H]2NC(=O)N[C@@H]21)P(=O)(Oc1ccccc1)Oc1ccccc1 [QUB-TL1] |  |  |  |  |  |  |  | Ki (human trypsin [11]): 0.174 µM; k3 (human trypsin [11]): 0.284 min⁻¹; k3/Ki (human trypsin [11]): 27300 M⁻¹ s⁻¹; inhibition of matriptase (matriptase [12]): potent inhibitor; inhibition of HAT (HAT): potent inhibitor
6 | N=C(N)NCCCN(CC(=O)NCC(=O)NCC(=O)NCCCCCC(=O)N[C@@H](CCCCNC(=O)CCCC[C@@H]1SC[C@@H]2NC(=O)N[C@@H]21)C(=O)O)C(=O)Oc1c(F)c(F)c(F)c(F)c1F [NAP966] (X4-[Gly(N-(CH2)3-guanidino)]GG[Ahx]K(Biotin)-OH) |  | 0.401 (±0.007) min^−1 | 1.92 (±0.250) x 10^5 M^−1 min^−1 |  |  |  |  | Ki (human trypsin [1]; Ki): ~2.1 µM; Ki (human trypsin [1]; Ki, PBS pH 7.4, 37°C, 50 μM Cbz-Gly-Gly-Arg-AMC, ±S.E.M., three determinations): 2.12 µM
